Like-named read-outs stand apart in the source and are kept apart here. Numbered stars: 1 amine (or outer) side, 2 acyl side, 3 side chain; on linkers, the order of the positions; unused ones are H or OH. Bridge positions count the residues as written; N and C are the ends. Square brackets hold non-standard residues; d marks the D form. Peptide text beside a SMILES is read from it. * marks the point of attachment. Trp(βS-Me,7-OMe) = COc1cccc2c([C@H](C)[C@H](N)C(=O)O)c[nH]c12; Trp(1-CH2COOH) = N[C@@H](Cc1cn(CC(=O)O)c2ccccc12)C(=O)O; X32 = NC(=O)c1ccc([C@@H](O)C(N[*:1])C(=O)[*:2])cc1; Trp(7-CN) = N#Cc1cccc2c(C[C@H](N)C(=O)O)c[nH]c12; Trp(7-Cl) = N[C@@H](Cc1c[nH]c2c(Cl)cccc12)C(=O)O; Phe(4-CONH2) = NC(=O)c1ccc(C[C@H](N)C(=O)O)cc1; Phe(4-COOH) = N[C@@H](Cc1ccc(C(=O)O)cc1)C(=O)O; dPro(4S-NH2) = N[C@@H]1CN[C@@H](C(=O)O)C1; Pip(5R-OH) = O=C(O)[C@@H]1CC[C@@H](O)CN1; X1 = O=C([C@@H]1CC[C@H](N[*:1])C1)[*:2]; X14 = CC(C)CCC[C@H](N[*:1])C(=O)[*:2]; Pip(4-aza) = O=C(O)[C@@H]1CNCCN1; 4Pal = N[C@@H](Cc1ccncc1)C(=O)O; NMeE = CN[C@@H](CCC(=O)O)C(=O)O; dHyp = O=C(O)[C@H]1C[C@H](O)CN1; αMeS = C[C@](N)(CO)C(=O)O; Carboxymethyl = O=C(O)C*; Nle = CCCC[C@H](N)C(=O)O; NEtG = CCNCC(=O)O; Sar = CNCC(=O)O
Legend:
human TNFR2 ECD protein = target: T1, human TNFR2 ECD protein (Homo sapiens, UniProt P20333); experiment: SPR off-target binding (selectivity) to human TNFR2 ECD
T1 construct: HRV 3C protease cleavage site (C); 6His (C, cleaved yes); made in house; host or cells: Sf21 insect cells (baculovirus), secreted
T1 sequence (P20333 23-257): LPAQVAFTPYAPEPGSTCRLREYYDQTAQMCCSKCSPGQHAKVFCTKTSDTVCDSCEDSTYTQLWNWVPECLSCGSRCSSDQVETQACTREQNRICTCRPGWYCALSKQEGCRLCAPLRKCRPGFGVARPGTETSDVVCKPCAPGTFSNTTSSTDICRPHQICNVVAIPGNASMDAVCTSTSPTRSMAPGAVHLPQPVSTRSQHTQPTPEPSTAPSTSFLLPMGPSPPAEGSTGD
Experimental: (§1) B. Procedure for Binding Affinity and Selectivity measured by SPR
(§2) Affinity and selectivity for hTNFR1 and TNFR2 was determined using SPR. Human TNFR1 or TNFR2 genes (extracellular domain only) were synthesized with a C-terminal Avi-tag, HRV 3C protease cleavage site followed by a 6His-tag for affinity purification. The final gene product was cloned into pBAC™-1 vector (Millipore Sigma) for expression testing in insect cells. Constructs were transfected into Sf21 cells for baculovirus generation followed by protein expression analysis in Sf21 and Tni cell lines. Large scale expression in Sf21 cells was performed using baculovirus infected insect cells (BIICs) infected at a MOI=2.0 grown for 72 h. Target proteins secreted into the media were harvested via centrifugation and concentrated using diafiltration. TNFR was purified by immobilized metal ion affinity chromatography (IMAC) using a Ni-Sepharose HisTrap™ column (Cytiva™). Isolated TNFR had His tag removed using HRV 3C protease followed by additional purification using Ni-NTA chromatography. Biotinylation was performed on Ni-NTA flow-through fractions concentrated to 45 μM and treated with BirA ligase (1:100, μg/μg ratio) in 50 mM Tris pH 7.5, 150 mM NaCl, 50 μM biotin, 10 mM magnesium acetate, 10 mM ATP at 4° C. for 20 h. Final purification of biotin-TNFR and buffer exchange into 20 mM HEPES pH 7.5, 150 mM NaCl was performed using a HiLoad® Superdex® 200 26/60 column (Cytiva™). Highly purified protein was aliquoted and stored at −80° C.
(§3) The SPR assay uses a Cytiva™ 8K or 8K+ biosensor instrument to measure the kinetics of peptide analytes binding to captured human TNFR1 extracellular domain (ECD) protein; peptide analytes are also evaluated for any off-target binding to human TNFR2 ECD protein in parallel. Recombinant human TNFR1 ECD and human TNFR2 ECD proteins, biotinylated via engineered C-terminal avi-tags, are immobilized to a regenerable streptavidin biosensor chip surface (Cytiva™ Biotin CAPture kit, Series S; cat. #28920234). Peptide analytes binding to immobilized human TNFR1 ECD protein and their subsequent dissociation are conducted in a buffer of 10 mM HEPES pH 7.4, 150 mM NaCl, 3 mM EDTA, 0.05% P20,2% DMSO under laminar flow conditions and measured in response units (RU), which are directly proportional to the accumulated mass on the surface of the biosensor chip; the biosensor chip surface is regenerated via Cytiva™ proprietary methods between the evaluation of each peptide analyte. […] The SPR assay determines the association and dissociation rate constants, kon and koff, for each peptide analyte and, from these values, calculates the binding affinity, […] reported in Table 2.

[1] = target: T2, human TNFR1 extracellular domain (ECD) protein (Homo sapiens, UniProt P19438); experiment: SPR binding affinity to captured human TNFR1 ECD
T2 construct: HRV 3C protease cleavage site (C); 6His (C, cleaved yes); made in house; host or cells: Sf21 insect cells (baculovirus), secreted
T2 sequence (P19438 30-211): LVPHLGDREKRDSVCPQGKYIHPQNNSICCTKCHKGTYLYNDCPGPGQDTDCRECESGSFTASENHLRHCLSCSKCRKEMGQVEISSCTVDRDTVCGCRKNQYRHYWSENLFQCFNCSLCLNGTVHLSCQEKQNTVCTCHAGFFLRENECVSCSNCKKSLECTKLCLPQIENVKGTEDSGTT
Experimental: as §1, §2, §3

[2] = target: T3, TNFα-induced NF-κB signal transduction pathway (TNFR1 signaling) in THP-1 cells (Homo sapiens, UniProt P19438); experiment: THP-1 Lucia NF-κB reporter cell assay, inhibition of TNFα-induced NF-κB signaling; type: cell-based; conditions: THP-1 NF-κB Lucia reporter cells, 10 ng/mL TNFα, 16-18 h, secreted luciferase; read-out: THP-1 IC50
T3 sequence (P19438 30-455): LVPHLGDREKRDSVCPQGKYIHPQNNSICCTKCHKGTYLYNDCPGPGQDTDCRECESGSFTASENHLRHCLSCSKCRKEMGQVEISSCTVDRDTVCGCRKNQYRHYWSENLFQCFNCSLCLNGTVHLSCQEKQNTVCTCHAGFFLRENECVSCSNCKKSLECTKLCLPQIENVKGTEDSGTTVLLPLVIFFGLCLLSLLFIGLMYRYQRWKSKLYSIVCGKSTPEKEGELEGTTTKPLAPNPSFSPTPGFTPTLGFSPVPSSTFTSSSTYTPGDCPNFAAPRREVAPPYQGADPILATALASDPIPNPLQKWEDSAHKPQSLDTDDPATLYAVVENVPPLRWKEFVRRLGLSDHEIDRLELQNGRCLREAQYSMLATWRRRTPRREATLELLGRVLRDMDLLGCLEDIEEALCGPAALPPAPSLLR
How it was run: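 THP-1 Lucia NF-κB cells, 20k/well, no selection antibiotics; peptide pre-inc 1 h 37 °C; + recombinant human TNFα 10 ng/mL final; o.n.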

Row | SMILES | Kd (human TNFR2 ECD protein; biotinylated human TNFR2 ECD on streptavidin chip, read-out: SPR hTNFR2 KD) [nM] | Kd ([1]; biotinylated human TNFR1 ECD on streptavidin chip, from kon and koff, read-out: SPR hTNFR1 KD) [nM] | IC50 [2] [nM] | Kd (human TNFR2 ECD protein) [nM] | Kd [1] [nM]
1 | CCCC[C@@H]1NC(=O)[C@@H]2CC[C@@H](C2)NC(=O)[C@H]([C@@H](C)c2c[nH]c3c(OC)cccc23)NC(=O)CN(C)C(=O)C([C@H](O)c2ccc(C(N)=O)cc2)NC(=O)[C@H](Cc2ccc(C(N)=O)cc2)NC(=O)[C@](C)(CO)NC(=O)[C@H](Cc2c[nH]c3c(C#N)cccc23)NC(=O)[C@H](Cc2ccc(C(=O)O)cc2)NC(=O)[C@H](CC(N)=O)NC(=O)[C@H]2C[C@H](N)CN2C(=O)[C@H](Cc2cn(CC(=O)O)c3ccccc23)NC(=O)[C@@H]2CC[C@@H](O)CN2C(=O)[C@H](Cc2ccncc2)NC1=O (stereo partly drawn) [SEQ ID NO. 87] (cyclo([4Pal][Pip(5R-OH)][Trp(1-CH2COOH)][dPro(4S-NH2)]N[Phe(4-COOH)][Trp(7-CN)][αMeS][Phe(4-CONH2)][X32][Sar][Trp(βS-Me,7-OMe)][X1][Nle])) | > 1000 | 0.02 | 0.7 |  | 
2 | COc1cccc2c([C@H](C)[C@@H]3NC(=O)CN(C)C(=O)[C@H](Cc4ccc(O)cc4)NC(=O)[C@H](Cc4ccc(C(N)=O)cc4)NC(=O)[C@](C)(CO)NC(=O)[C@H](Cc4c[nH]c5c(Cl)cccc45)NC(=O)[C@H](Cc4ccc(C(=O)O)cc4)NC(=O)[C@H](CC(N)=O)NC(=O)[C@H](CCC(=O)O)N(C)C(=O)[C@H](Cc4c[nH]c5ccccc45)NC(=O)[C@@H]4CNCCN4C(=O)[C@H](Cc4ccncc4)NC(=O)[C@H](CCCC(C)C)NC(=O)CSC[C@@H](C(N)=O)NC3=O)c[nH]c12 [SEQ ID NO. 93] ({CH2CO}-[X14][4Pal][Pip(4-aza)]W[NMeE]N[Phe(4-COOH)][Trp(7-Cl)][αMeS][Phe(4-CONH2)]Y[Sar][Trp(βS-Me,7-OMe)]C-NH2; thioether N-14) |  |  | 2.7 | > 1000 | 0.78
3 | CCCC[C@@H]1NC(=O)[C@@H]2CC[C@@H](C2)NC(=O)[C@H]([C@@H](C)c2c[nH]c3c(OC)cccc23)NC(=O)CN(C)C(=O)[C@H](Cc2ccc(O)cc2)NC(=O)[C@H](Cc2ccc(C(=O)O)cc2)NC(=O)[C@](C)(CO)NC(=O)[C@H](Cc2c[nH]c3c(Cl)cccc23)NC(=O)[C@H](Cc2ccncc2)NC(=O)[C@H](CC(N)=O)NC(=O)CN(CC)C(=O)[C@H](Cc2c[nH]c3ccccc23)NC(=O)[C@@H]2CNCCN2C(=O)[C@H](Cc2ccncc2)NC1=O [SEQ ID NO. 94] (cyclo([4Pal][Trp(7-Cl)][αMeS][Phe(4-COOH)]Y[Sar][Trp(βS-Me,7-OMe)][X1][Nle][4Pal][Pip(4-aza)]W[NEtG]N)) |  |  | 0.8 | > 1000 | 0.07
4 | CCCC[C@@H]1NC(=O)[C@@H]2CC[C@@H](C2)NC(=O)[C@H]([C@@H](C)c2c[nH]c3c(OC)cccc23)NC(=O)CN(C)C(=O)[C@H](Cc2ccc(O)cc2)NC(=O)[C@H](Cc2ccc(C(N)=O)cc2)NC(=O)[C@](C)(CO)NC(=O)[C@H](Cc2c[nH]c3c(Cl)cccc23)NC(=O)[C@H](Cc2ccc(C(=O)O)cc2)NC(=O)[C@H](CC(N)=O)NC(=O)[C@H]2C[C@H](OCC(=O)O)CN2C(=O)[C@H](Cc2c[nH]c3ccccc23)NC(=O)[C@@H]2CNCCN2C(=O)[C@H](Cc2ccncc2)NC1=O [SEQ ID NO. 95] (cyclo([4Pal][Pip(4-aza)]W[dHyp](Carboxymethyl)N[Phe(4-COOH)][Trp(7-Cl)][αMeS][Phe(4-CONH2)]Y[Sar][Trp(βS-Me,7-OMe)][X1][Nle])) |  |  | 0.7 | > 1000 | 0.2

Source: patent US20240287138A1, “CYCLIC PEPTIDES FOR INHIBITING TNF RECEPTOR 1 ACTIVITY” (Merck Sharp & Dohme LLC, priority 2023, published 2024)
